Results published in PubChem BioAssay (NCI).
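Five concentrations, 48 hours, 96-well plates. Here, GI50 denotes the concentration required for 50% inhibition of growth. TGI: total growth inhibition.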

Legend:
Experiment in all cases: growth of human tumour cells (NCI), 48 h
IGROV1 ovarian = test system: IGROV1 ovarian
UACC-257 melanoma = test system: UACC-257 melanoma
NCI-H522 lung = test system: NCI-H522 lung
NCI-H23 lung = test system: NCI-H23 lung
KM12 colon = test system: KM12 colon
SF-295 CNS = test system: SF-295 CNS
HCT-15 colon = test system: HCT-15 colon
DU-145 prostate = test system: DU-145 prostate
TK-10 renal = test system: TK-10 renal
SNB-75 CNS = test system: SNB-75 CNS
T-47D breast = test system: T-47D breast
NCI/ADR-RES ovarian = test system: NCI/ADR-RES ovarian
SW-620 colon = test system: SW-620 colon
HCT-116 colon = test system: HCT-116 colon
CCRF-CEM leukemia = test system: CCRF-CEM leukemia
SK-MEL-28 melanoma = test system: SK-MEL-28 melanoma
786-0 renal = test system: 786-0 renal
HOP-62 NSCLC = test system: HOP-62 NSCLC
SN12C renal = test system: SN12C renal
RXF 393 renal = test system: RXF 393 renal
SNB-19 CNS = test system: SNB-19 CNS
HOP-92 NSCLC = test system: HOP-92 NSCLC
UACC-62 melanoma = test system: UACC-62 melanoma
A498 renal = test system: A498 renal
MDA-MB-231 breast = test system: MDA-MB-231 breast
OVCAR-8 ovarian = test system: OVCAR-8 ovarian
MDA-N = test system: MDA-N
RPMI-8226 leukemia = test system: RPMI-8226 leukemia
OVCAR-3 ovarian = test system: OVCAR-3 ovarian
SK-OV-3 ovarian = test system: SK-OV-3 ovarian
MCF7 breast = test system: MCF7 breast
LOX IMVI melanoma = test system: LOX IMVI melanoma
K-562 leukemia = test system: K-562 leukemia
M14 melanoma = test system: M14 melanoma
ACHN renal = test system: ACHN renal
HCC-2998 colon = test system: HCC-2998 colon
OVCAR-4 ovarian = test system: OVCAR-4 ovarian
A549 NSCLC = test system: A549 NSCLC
MDA-MB-435 = test system: MDA-MB-435
U251 CNS = test system: U251 CNS
EKVX NSCLC = test system: EKVX NSCLC
UO-31 renal = test system: UO-31 renal
HL-60(TB) leukemia = test system: HL-60(TB) leukemia
SK-MEL-5 melanoma = test system: SK-MEL-5 melanoma
HT29 colon = test system: HT29 colon
COLO 205 colon = test system: COLO 205 colon
MALME-3M melanoma = test system: MALME-3M melanoma
OVCAR-5 ovarian = test system: OVCAR-5 ovarian
NCI-H226 lung = test system: NCI-H226 lung
MOLT-4 leukemia = test system: MOLT-4 leukemia
PC-3 prostate = test system: PC-3 prostate
SK-MEL-2 melanoma = test system: SK-MEL-2 melanoma
SF-539 CNS = test system: SF-539 CNS
CAKI-1 renal = test system: CAKI-1 renal
HS 578T breast = test system: HS 578T breast
BT-549 breast = test system: BT-549 breast
SF-268 CNS = test system: SF-268 CNS
SR leukemia = test system: SR leukemia
NCI-H460 lung = test system: NCI-H460 lung

Cc1[nH]c(=O)nc(NCCNCCO)c1C(=O)Nc1c2ccccc2nc2ccccc12
TGI (IGROV1 ovarian): > 100000 nM | TGI (UACC-257 melanoma): > 100000 nM | TGI (NCI-H522 lung): > 100000 nM | TGI (NCI-H23 lung): > 100000 nM | TGI (KM12 colon): > 100000 nM | TGI (SF-295 CNS): > 100000 nM | TGI (HCT-15 colon): > 100000 nM | TGI (DU-145 prostate): > 100000 nM | TGI (TK-10 renal): > 100000 nM | TGI (SNB-75 CNS): > 100000 nM | TGI (T-47D breast): > 100000 nM | TGI (NCI/ADR-RES ovarian): > 100000 nM | TGI (SW-620 colon): > 100000 nM | TGI (HCT-116 colon): > 100000 nM | TGI (CCRF-CEM leukemia): > 100000 nM | TGI (SK-MEL-28 melanoma): > 100000 nM | TGI (786-0 renal): > 100000 nM | TGI (HOP-62 NSCLC): > 100000 nM | TGI (SN12C renal): > 100000 nM | TGI (RXF 393 renal): > 100000 nM | TGI (SNB-19 CNS): > 100000 nM | TGI (HOP-92 NSCLC): > 100000 nM | TGI (UACC-62 melanoma): > 100000 nM | TGI (A498 renal): > 100000 nM | TGI (MDA-MB-231 breast): > 100000 nM | TGI (OVCAR-8 ovarian): > 100000 nM | TGI (MDA-N): > 100000 nM | TGI (RPMI-8226 leukemia): > 100000 nM | TGI (OVCAR-3 ovarian): > 100000 nM | TGI (SK-OV-3 ovarian): > 100000 nM | TGI (MCF7 breast): > 100000 nM | TGI (LOX IMVI melanoma): > 100000 nM | TGI (K-562 leukemia): > 100000 nM | TGI (M14 melanoma): > 100000 nM | TGI (ACHN renal): > 100000 nM | TGI (HCC-2998 colon): > 100000 nM | TGI (OVCAR-4 ovarian): > 100000 nM | TGI (A549 NSCLC): > 100000 nM | TGI (MDA-MB-435): > 100000 nM | TGI (U251 CNS): > 100000 nM | TGI (EKVX NSCLC): > 100000 nM | TGI (UO-31 renal): > 100000 nM | TGI (HL-60(TB) leukemia): > 100000 nM | TGI (SK-MEL-5 melanoma): > 100000 nM | TGI (HT29 colon): > 100000 nM | TGI (COLO 205 colon): > 100000 nM | TGI (MALME-3M melanoma): > 100000 nM | TGI (OVCAR-5 ovarian): > 100000 nM | TGI (NCI-H226 lung): > 100000 nM | TGI (MOLT-4 leukemia): > 100000 nM | TGI (PC-3 prostate): > 100000 nM | TGI (SK-MEL-2 melanoma): > 100000 nM | TGI (SF-539 CNS): > 100000 nM | TGI (CAKI-1 renal): > 100000 nM

COc1ccccc1CNCCCN1C(=O)c2ccc3c4c(ccc(c24)C1=O)C(=O)N(CCCNCCCN)C3=O
GI50 (IGROV1 ovarian): 272 nM | TGI (IGROV1 ovarian): 2720 nM | GI50 (HS 578T breast): 1200 nM | TGI (HS 578T breast): 5820 nM | GI50 (UACC-257 melanoma): 607 nM | TGI (UACC-257 melanoma): 1980 nM | GI50 (NCI-H522 lung): 471 nM | TGI (NCI-H522 lung): 2310 nM | GI50 (NCI-H23 lung): 310 nM | TGI (NCI-H23 lung): 2550 nM | GI50 (KM12 colon): 705 nM | TGI (KM12 colon): 4140 nM | GI50 (SF-295 CNS): 450 nM | TGI (SF-295 CNS): 4610 nM | GI50 (HCT-15 colon): 886 nM | TGI (HCT-15 colon): 3760 nM | GI50 (DU-145 prostate): 630 nM | TGI (DU-145 prostate): 2390 nM | GI50 (TK-10 renal): 1570 nM | TGI (TK-10 renal): 6360 nM | GI50 (SNB-75 CNS): 1290 nM | TGI (SNB-75 CNS): 3290 nM | GI50 (T-47D breast): 791 nM | TGI (T-47D breast): 3080 nM | GI50 (NCI/ADR-RES ovarian): 1160 nM | TGI (NCI/ADR-RES ovarian): 5710 nM | GI50 (SW-620 colon): 105 nM | TGI (SW-620 colon): 1790 nM | GI50 (HCT-116 colon): 136 nM | TGI (HCT-116 colon): 3040 nM | GI50 (CCRF-CEM leukemia): 185 nM | TGI (CCRF-CEM leukemia): 4130 nM | GI50 (SK-MEL-28 melanoma): 740 nM | TGI (SK-MEL-28 melanoma): 2700 nM | GI50 (786-0 renal): 712 nM | TGI (786-0 renal): 7180 nM | GI50 (HOP-62 NSCLC): 444 nM | TGI (HOP-62 NSCLC): 3340 nM | GI50 (BT-549 breast): 1440 nM | TGI (BT-549 breast): 3810 nM | GI50 (RXF 393 renal): 246 nM | TGI (RXF 393 renal): 1930 nM | GI50 (SF-268 CNS): 410 nM | TGI (SF-268 CNS): 6370 nM | GI50 (SNB-19 CNS): 605 nM | TGI (SNB-19 CNS): 4050 nM | GI50 (HOP-92 NSCLC): 971 nM | TGI (HOP-92 NSCLC): 4880 nM | GI50 (UACC-62 melanoma): 653 nM | TGI (UACC-62 melanoma): 2170 nM | GI50 (A498 renal): 342 nM | TGI (A498 renal): 2150 nM | GI50 (MDA-MB-231 breast): 1410 nM | TGI (MDA-MB-231 breast): 9720 nM | GI50 (OVCAR-8 ovarian): 73.5 nM | TGI (OVCAR-8 ovarian): 2830 nM | GI50 (RPMI-8226 leukemia): 581 nM | TGI (RPMI-8226 leukemia): 4880 nM | GI50 (OVCAR-3 ovarian): 324 nM | TGI (OVCAR-3 ovarian): 1420 nM | GI50 (SK-OV-3 ovarian): 1010 nM | TGI (SK-OV-3 ovarian): 4660 nM | GI50 (MCF7 breast): 123 nM | TGI (MCF7 breast): 2430 nM | GI50 (LOX IMVI melanoma): 232 nM | TGI (LOX IMVI melanoma): 1920 nM | GI50 (K-562 leukemia): 216 nM | TGI (K-562 leukemia): 3760 nM | GI50 (M14 melanoma): 972 nM | TGI (M14 melanoma): 2710 nM | GI50 (ACHN renal): 526 nM | TGI (ACHN renal): 10300 nM | GI50 (HCC-2998 colon): 350 nM | TGI (HCC-2998 colon): 1980 nM | GI50 (OVCAR-4 ovarian): 847 nM | TGI (OVCAR-4 ovarian): 2670 nM | GI50 (A549 NSCLC): 130 nM | TGI (A549 NSCLC): 2130 nM | GI50 (MDA-MB-435): 570 nM | TGI (MDA-MB-435): 2720 nM | GI50 (U251 CNS): 106 nM | TGI (U251 CNS): 1620 nM | GI50 (EKVX NSCLC): 1020 nM | TGI (EKVX NSCLC): 2990 nM | GI50 (UO-31 renal): 744 nM | TGI (UO-31 renal): 3080 nM | GI50 (HL-60(TB) leukemia): 744 nM | TGI (HL-60(TB) leukemia): 2780 nM | GI50 (SK-MEL-5 melanoma): 482 nM | TGI (SK-MEL-5 melanoma): 1820 nM | GI50 (HT29 colon): 159 nM | TGI (HT29 colon): 1540 nM | GI50 (COLO 205 colon): 456 nM | TGI (COLO 205 colon): 1850 nM | GI50 (MALME-3M melanoma): 898 nM | TGI (MALME-3M melanoma): 2200 nM | GI50 (OVCAR-5 ovarian): 1410 nM | TGI (OVCAR-5 ovarian): 7360 nM | GI50 (NCI-H226 lung): 746 nM | TGI (NCI-H226 lung): 3200 nM | GI50 (SR leukemia): 27.3 nM | TGI (SR leukemia): 9200 nM | GI50 (MOLT-4 leukemia): 182 nM | TGI (MOLT-4 leukemia): 1990 nM | GI50 (NCI-H460 lung): 146 nM | TGI (NCI-H460 lung): 1410 nM | GI50 (PC-3 prostate): 653 nM | TGI (PC-3 prostate): 4610 nM | GI50 (SK-MEL-2 melanoma): 907 nM | TGI (SK-MEL-2 melanoma): 3030 nM | GI50 (SF-539 CNS): 968 nM | TGI (SF-539 CNS): 2820 nM | GI50 (CAKI-1 renal): 1110 nM | TGI (CAKI-1 renal): 5770 nM
